Columns and labels:
[1] = system: AN3CA; assay: CellTiter-Blue cell viability assay, AN3CA cell line; type: cell-based; details: Homo sapiens, AN3-CA, 72 hour treatment, concentration that inhibits cell growth by 50 percent of control
Experimental: (§1) Cell viability in the presence of varying concentrations of the above listed compounds at different time points was used to assess cytotoxicity and the effect of the compounds on cell proliferation.
(§2) Cell viability was measured by the CellTiter-Blue® cell viability assay Promega (Madison, Wis.). This procedure measures the conversion of the indicator dye (resazurin) to resorufin, an indicator of cell viability. Following treatment, growth media was removed and cells were incubated with 20 μl of CellTiter-Blue® Reagent and growth media for 1-4 hours at 37° C. Fluorescence values were measured at 535/590 nm using a Beckman-Coulter DTX-880 microplate reader.
(§3) Cells were grown to 70% confluency, trypsinized, counted, and seeded in 96 well flat-bottom plates at a final concentration of 2.5×10^3-5×10^3 cells/well (Day 0). Cells were allowed to incubate in growth media for 24 hours to allow for maximum adhesion. Treatment with the test agents or standard agents began on Day 1 and continued for 72 hours. At the 72 hour timepoint, treatment containing media was removed. Viable cell numbers were quantified by the CellTiter-Blue® cell viability assay as described above. Experiments were repeated at least twice with the same concentrations to determine growth inhibitory activity. Results from these studies were used to calculate an IC50 value (concentration of drug that inhibits cell growth by 50 percent of control) for each compound.
(§4) For single agent and combination studies, data from each experiment were collected and expressed as % Cell Growth using the following calculation: % Cell Growth=(ftest/fvehicle)×100 where ftest is the fluorescence of the tested sample, and fvehicle is the fluorescence of the vehicle in which the drug is dissolved. Dose response graphs and IC50 values were generated using Prism 4 software (GraphPad) using the following equation: Y=(Top−Bottom)/(1+10^((log IC50−X)[…])) where X is the logarithm of concentration and Y is the response. Y starts at the Bottom and goes to Top with a sigmoid shape.

[2] = system: A498; assay: CellTiter-Blue cell viability assay, A498 cell line; type: cell-based; details: Homo sapiens, 72 hour treatment, concentration that inhibits cell growth by 50 percent of control
Experimental: as §1, §2, §3, §4

| SMILES | IC50 [1] [µM] | IC50 [2] [µM] |
| --- | --- | --- |
| CN(C)c1ccc(-c2ccn[nH]2)cc1-c1cc(C(F)(F)F)nn1-c1ccc(S(N)(=O)=O)cc1 [Compound 36] | 9.1 | – |
| Cc1cc(-c2cc(C3CC3)nn2-c2ccc(C(=O)NO)cc2)ccc1Cl [Compound 76] | 9 | – |
| Cc1ccc(Br)cc1-c1cc(C(F)(F)F)nn1-c1ccc(S(N)(=O)=O)cc1 [Example 1] | 7.6 | 11 |
| Cc1ccc(-c2ccn[nH]2)cc1-c1cc(C2CC2)nn1-c1ccc(S(N)(=O)=O)cc1 [Compound 73] | 3.3 | 7.9 |
| Cc1ccc(-c2ccn[nH]2)cc1-c1cc(C(F)(F)F)nn1-c1ccc(S(N)(=O)=O)cc1 [Example 12] | 0.04 | 14 |
| NS(=O)(=O)c1ccc(-n2nc(C(F)(F)F)cc2-c2cc(-c3ccncc3)ccc2F)cc1 [Compound 20] | 3 | – |
| Cc1cc(-c2ccncc2)cc(-c2cc(C(F)(F)F)nn2-c2ccc(S(N)(=O)=O)cc2)c1 [Compound 22] | 1.2 | – |
| NS(=O)(=O)c1ccc(-n2nc(C(F)(F)F)cc2-c2cccc(-c3ccn[nH]3)c2)cc1 [Compound 34] | 2.1 | 12 |
| Cc1ccc(Br)c(-c2cc(C(F)(F)F)nn2-c2ccc(S(N)(=O)=O)cc2)c1 [Compound 6] | 1.5 | 6.9 |
| Cc1ccc(-c2cccnc2)cc1-c1cc(C(F)(F)F)nn1-c1ccc(S(N)(=O)=O)cc1 [Compound 46] | 9.1 | 10 |
| Cc1ccc(-c2ccncc2)cc1-c1cc(C(F)(F)F)nn1-c1ccc(S(N)(=O)=O)cc1 [Example 11] | 0.01 | 8.9 |
| CN(C)c1ccc(Br)cc1-c1cc(C(F)(F)F)nn1-c1ccc(S(N)(=O)=O)cc1 [Example 2] | 0.6 | 1.2 |
| Cc1ccc(C(C)C)cc1-c1cc(C(F)(F)F)nn1-c1ccc(S(N)(=O)=O)cc1 [Compound 4] | 0.83 | 1.1 |
| COc1ccc(C(C)C)cc1-c1cc(C(F)(F)F)nn1-c1ccc(S(N)(=O)=O)cc1 [Compound 7] | 5.8 | 12 |

— patent US10584119B2, “Pyrazole compounds and methods of use thereof” (TRANSLATIONAL DRUG DEVELOPMENT, LLC, priority 2013, dated 2020)
